Read-outs that look alike come from different tables or passages of the source.
Key:
[1] = biological target: T1, human androgen receptor (hAR) (Homo sapiens, UniProt P10275); assay: Functional response (transactivation) test in HALP2 cells (HeLa stably expressing hAR and ARE-luciferase reporter); assay type: cell-based; conditions: for Emax: HeLa, read-out: % effect relative to DHT (100%)
T1 construct: expressed in transfected cells
T1 sequence (P10275 1-920): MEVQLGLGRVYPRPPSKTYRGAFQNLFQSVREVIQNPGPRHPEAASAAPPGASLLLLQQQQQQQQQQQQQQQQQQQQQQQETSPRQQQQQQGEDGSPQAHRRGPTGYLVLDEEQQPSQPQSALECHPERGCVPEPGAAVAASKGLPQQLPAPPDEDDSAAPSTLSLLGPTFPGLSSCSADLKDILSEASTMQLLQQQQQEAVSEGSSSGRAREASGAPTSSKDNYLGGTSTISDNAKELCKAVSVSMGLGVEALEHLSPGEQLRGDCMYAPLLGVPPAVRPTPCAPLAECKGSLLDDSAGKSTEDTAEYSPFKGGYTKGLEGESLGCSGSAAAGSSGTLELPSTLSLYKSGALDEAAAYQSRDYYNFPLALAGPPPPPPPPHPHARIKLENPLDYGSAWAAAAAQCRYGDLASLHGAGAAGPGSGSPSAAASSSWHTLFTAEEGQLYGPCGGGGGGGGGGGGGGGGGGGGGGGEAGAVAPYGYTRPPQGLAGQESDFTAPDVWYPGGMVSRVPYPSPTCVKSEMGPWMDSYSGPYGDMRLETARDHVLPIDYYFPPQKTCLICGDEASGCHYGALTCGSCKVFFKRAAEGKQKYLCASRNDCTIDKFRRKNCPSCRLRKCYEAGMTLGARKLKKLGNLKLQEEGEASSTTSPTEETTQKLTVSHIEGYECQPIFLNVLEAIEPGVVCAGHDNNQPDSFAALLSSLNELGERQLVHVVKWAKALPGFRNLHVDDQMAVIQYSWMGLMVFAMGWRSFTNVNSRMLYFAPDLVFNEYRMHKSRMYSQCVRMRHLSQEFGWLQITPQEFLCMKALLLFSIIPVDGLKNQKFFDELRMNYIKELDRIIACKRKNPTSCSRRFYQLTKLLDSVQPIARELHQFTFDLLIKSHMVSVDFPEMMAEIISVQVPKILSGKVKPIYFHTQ
From the text: This test constitutes a method of identifying pure or partial agonists which mimic the effects of natural hormones, such as DHT (dihydrotestosterone) in the present case or, on the other hand, antagonists which inhibit them.
For this transactivation test, plasmids encoding a reporter gene and the human androgen receptor (hAR) are introduced together by transfection into the HeLa cell line. The reporter plasmid contains luciferase cDNA under the control of the AREs contained in the promoter sequences of the probasin gene (3xpbAREminicoll-luciferase/pGL3-puro). The expression of the reporter gene constitutes an indication of the transcriptional activity of hAR. It also encodes a protein allowing the cells expressing it to resist a treatment with puromycin. The plasmid encoding hAR contains the cDNA of hAR under the control of the Cytomegalovirus (CMV) promoter. It also encodes a protein allowing the cells expressing it to resist a treatment with neomycin. The treatment of cells with increasing amounts of potentially agonistic compounds will increase the expression of the reporter gene. To detect antagonists, on the other hand, increasing doses of test compounds are tested in the presence of […] of DHT. The expression of the reporter gene, which is constant for each dose of DHT, decreases when the concentration of the test compounds increases.
The functional response test is conducted on 96-well plates. The HALP2 cells are seeded (20,000 cells per well) in culture medium (DMEM with phenol red, 1% de Pen-Strep, 1% of non-essential amino acids, 10% of fetal bovine serum, 400 μg/mL Geneticin and 0.150 puromycin) on day 1. After 24 hours incubating at 37° C., 5% CO2, high humidity (day 2) the medium is removed and refreshed with test medium (DMEM without phenol red supplemented, 1% de Pen-Strep, 1% of non-essential amino acids and 5% of desteroidised foetal bovine serum). After another 24 hours incubating at 37° C., 5% CO2, high humidity (day 3), the medium is renewed once more before the phase of stimulation.
The cells are placed in contact with the compounds for 24 hours at 37° C., 5% CO2, high humidity. On day 4 the medium is then removed and the luciferase activity reading reagent is placed in contact with the cells in accordance with the manufacturer's instructions (SteadyLite, Perkin-Elmer). The luminescence produced is detected on an Envision reader (Perkin-Elmer). […]
The determination of the relative agonism/antagonism of a compound is obtained by comparing the maximal activation obtained with said compound and the activation obtained with DHT alone (100%).

[2] = test system: castrated immature young rats; assay: Adapted model of Hershberger's test; assay type: in vivo, Sprague Dawley rats; conditions: Rattus norvegicus, po, 96 h, ORX control = 0%, SHAM control = 100%, per os daily for 4 days, dose tested 10 mg/kg
Description: The selective modulating activity of the androgen receptor is tested in a model of castrated immature young rats. This model, which is widely recognised for evaluating the anabolic effects of androgen compounds on the muscles and on the prostate, has been described by Hershberger et al. 1953 Proc. Soc. Expt. Biol. Med. 83:175.
The method is based on the measurement of the well-known effects of androgens on the growth of the muscles and the accessory male sex organs in animals, and also in men. The consequences of castration appear in the form of a rapid involution and atrophy of the prostate and the seminal vesicles and of the anus-lifting muscle (levator ani). This effect may be completely compensated by an exogeneous administration of androgen, in particular of testosterone. The model is thus used to determine the capacity of the tested molecules to maintain the weight of the accessory sex and muscle organs in immature castrated rats, and therefore their androgenic efficacy.
Immature young Sprague Dawley rats (4 to 5 weeks old) weighing approximately 140-160 g (Charles River, Les Oncins, FRANCE) are distributed randomly in various groups and are kept in an environment at 22±2° C. with an alternating day/night cycle of 12 hours and ad libitum access to food and drink.
On day 0 (seven days before commencement of the first treatment) the rats are weighed individually then anaesthetised with an intraperitoneal dose of Ketamine/xylazine (85/15 mg/kg, approximately 2 ml/kg). Each animal is then placed on a sterile field and the abdomen and the scrotum are disinfected with Betadine and 70% alcohol. In the case of the orchidectomised control animals (ORX), the testicles are removed via an incision in the middle of the scrotum. A sterile suture is then made to ligature the supra-testicular portion of the tissue prior to surgical section of each testicle. The groups of animals to be treated by the tested compounds are operated on in an identical manner. In the case of the intact control animals (SHAM), the testicles are similarly extracted and reintroduced delicately to their original location. The site of surgical intervention is then sutured using sterile suture thread, and the site is disinfected again by application of Betadine. Each animal is then kept under a sterile pad until it awoke, before being returned to its cage. The animals are kept in an environment at 22±2° C. with an alternating day/night cycle of 12 hours and ad libitum access to food and drink. The animals are treated with the molecules to be tested from post-surgery day 7 and until day 10 preceding sacrifice (day 11).
The rats are split into groups and treated daily from day 7 to day 10 under the conditions defined below: • 1. SHAM control group: Vehicle (PEG400/DMSO/water; 79/1/20) administered per os. • 2. ORX control group: Vehicle (PEG400/DMSO/water; 79/1/20) administered per os. • 3. Treated ORX group: The tested compounds are administered individually per os in suspension in the vehicle described above, in a dose of 10 mg/kg.
After treatment for 4 successive days, the animals are decapitated using a guillotine. The levator ani and the ventral prostate are removed and weighed individually. For comparing inter-experimental data, the weight of each organ is standardised and expressed in milligrammes per 100 g of the weight of the animal (W). For each organ, the average of the standardised weights of the ORX control group is fixed by definition at 0% and the average of the standardised weights of the SHAM control group is fixed by definition at 100%. The efficacy of each product is expressed as a percentage and calculated using the following formula: (Wtreated−WORX)/(WSHAM−WORX)×100
A subsequent ANOVA test is used for statistical analysis to identify the differences between groups.

[3] = maximal activation by the compound compared with DHT alone (100%), HALP2 cells
[4] = levator ani weight, read-out: Anabolic activity %
[5] = ventral prostate weight, read-out: Androgenic activity % (Prostate)
[6] = agonism: concentration inducing 50% of the maximum agonistic effect of the tested compound, HALP2 cells, 24 hours, read-out: EC50

SMILES | Emax [1, 3] [%] | response vs control in vivo at 10 mg/kg [2, 4] [%] | response vs control in vivo at 10 mg/kg [2, 5] [%] | EC50 [1, 6] [nM] | % effect relative to DHT (100%) [1, 3] | EC50 [1] [nM] | Emax [1] [%]
CCC(O)C1(c2ccccc2)C(=O)N(c2ccc(C#N)c(C(F)(F)F)c2)C(=O)N1C (single isomer, unassigned) [Example 2, 4-[2,5-Dioxo-4-(1-hydroxypropyl)-3-methyl-4-phenylimidazolidin-1-yl]-2-trifluoromethylbenzonitrile] | 0 to 5 |  |  |  |  |  | 
CN1C(=O)N(c2ccc(C#N)c(C(F)(F)F)c2)C(=O)C1(CO)c1cccc(Cl)c1 (stereo not drawn) [Example 9] | 41 to 50 | 50 to 75 | 0.5 to 25 | 0.01 to 10 |  |  | 
CN1C(=O)N(c2ccc(C#N)c(C(F)(F)F)c2)C(=O)C1(CO)c1ccc(C#N)cc1 (stereo not drawn) [Example 13, 4-[4-(4-Cyanophenyl)-2,5-dioxo-4-hydroxymethyl-3-methylimidazolidin-1-yl)-2-trifluoromethylbenzonitrile] | 0 to 5 | 0.5 to 25 | 0.5 to 25 |  |  |  | 
CN1C(=O)N(c2ccc(C#N)c(C(F)(F)F)c2)C(=O)C1(CO)c1cccc(C#N)c1 (stereo not drawn) [Example 14, 4-[4-(3-Cyanophenyl)-2,5-dioxo-4-hydroxymethyl-3-methylimidazolidin-1-yl)-2-trifluoromethylbenzonitrile] | 21 to 40 | 75 to 100 | 25 to 50 | 101 to 500 |  |  | 
CN1C(=O)N(c2ccc(C#N)c(C(F)(F)F)c2)C(=O)C1(CO)c1cccc(C(F)(F)F)c1 (stereo not drawn) [Example 15, 4-[2,5-Dioxo-4-hydroxymethyl-3-methyl-4-(3-trifluoromethylphenyl)imidazolidin-1-yl)-2-trifluoromethylbenzonitrile] | 21 to 40 | 25 to 50 | 0 | 101 to 500 |  |  | 
CN1C(=O)N(c2ccc(Cl)c(Cl)c2)C(=O)C1(CO)c1ccccc1 (stereo not drawn) [Example 16, 1-(3,4-Dichlorophenyl)-4-hydroxymethyl-3-methyl-4-phenylimidazolidine-2,5-dione] | 6 to 20 | 75 to 100 | 0.5 to 25 | 101 to 500 |  |  | 
CC(C)N1C(=O)N(c2ccc(C#N)c(C(F)(F)F)c2)C(=O)C1(CO)c1ccccc1 (stereo not drawn) [Example 17, 4-[2,5-Dioxo-4-(hydroxymethyl)-3-(1-methylethyl)-4-phenylimidazolidin-1-yl]-2-trifluoromethylbenzonitrile] | 41 to 50 | 75 to 100 | 50 to 75 | 101 to 500 |  |  | 
N#CCN1C(=O)N(c2ccc(C#N)c(C(F)(F)F)c2)C(=O)C1(CO)c1ccccc1 (stereo not drawn) [Example 18, 4-[3-Cyanomethyl-2,5-dioxo-4-(hydroxymethyl)-4-phenylimidazolidin-1-yl]-2-trifluoromethylbenzonitrile] | 6 to 20 | 75 to 100 | 0.5 to 25 | 501 to 1000 |  |  | 
C#CCN1C(=O)N(c2ccc(C#N)c(C(F)(F)F)c2)C(=O)C1(CO)c1ccccc1 (stereo not drawn) [Example 19] | 6 to 20 | 75 to 100 | 25 to 50 | 101 to 500 |  |  | 
N#Cc1ccc(N2C(=O)NC(CO)(c3ccccc3)C2=O)cc1C(F)(F)F (stereo not drawn) [Example 20, 4-[2,5-Dioxo-4-hydroxymethyl-4-phenylimidazolidin-1-yl]-2-trifluoromethylbenzonitrile] |  |  |  |  | § (0-5%) |  | 
CN1C(=O)N(c2ccc(C#N)c(C(F)(F)F)c2)C(=O)C1(COP(=O)(O)O)c1ccccc1 (stereo not drawn) [Example 24, [1-(4-Cyano-3-trifluoromethylphenyl)-2,5-dioxo-3-methyl-4-phenylimidazolidin-4-yl]methyl dihydrogen phosphate] | 21 to 40 |  |  | 0.01 to 10 |  |  | 
CC(C)[C@H](N)C(=O)OCC1(c2ccccc2)C(=O)N(c2ccc(C#N)c(C(F)(F)F)c2)C(=O)N1C (stereo partly drawn) [Example 25, (2S)-1-[1-(4-Cyano-3-trifluoromethylphenyl)-2,5-dioxo-3-methyl-4-phenylimidazolidin-4-yl]methoxy-3-methyl-1-oxobutan-2-aminium chloride] |  |  |  |  |  | 11 to 100 | 21 to 40
CN1C(=O)N(c2ccc(C#N)c(C(F)(F)F)c2)C(=O)C1(COC(=O)CCC(=O)O)c1ccccc1 (stereo not drawn) [Example 26, 4-[1-(4-Cyano-3-trifluoromethylphenyl)-2,5-dioxo-3-methyl-4-phenylimidazolidin-4-yl]methoxy-4-oxobutanoic acid] |  |  |  |  |  | 11 to 100 | 21 to 40

From patent US8383608B2, “Imidazolidine compounds as androgen receptor modulators” (Dart Therapeutics LLC, priority 2008, dated 2013)
